# Patent US6737383B1, “Herbicidal oxadiazolidines” (priority 1999, dated 2004)
# What was measured:
# crabgrass = assay: Test B pre/postemergence crabgrass; assay type: in vivo, Digitaria sanguinalis
# Procedure, shortened: (§1)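 Test chemicals in a non-phytotoxic solvent mixture with surfactant were sprayed preemergence onto planted seeds and postemergence onto plants 2 to 18 cm tall (1- to 4-leaf stage). After twelve to sixteen days in a greenhouse, injury was visually rated against untreated controls from 0 (no effect) to 10 (complete control).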
# wheat = assay: Test B pre/postemergence wheat; assay type: in vivo, Triticum aestivum; conditions: for Plant response rating, Wheat: Postemergence
# Procedure, shortened: as §1
# rape = assay: Test B pre/postemergence rape; assay type: in vivo, Brassica napus
# Procedure, shortened: as §1
# giant foxtail = assay: Test B pre/postemergence giant foxtail; assay type: in vivo, Setaria faberii
# Procedure, shortened: as §1
# bedstraw = assay: Test B pre/postemergence bedstraw; assay type: in vivo, Galium aparine; conditions: for Plant response rating, Bedstraw: Postemergence
# Procedure, shortened: as §1
# velvetleaf = assay: Test B pre/postemergence velvetleaf; assay type: in vivo, Abutilon theophrasti; conditions: for Plant response rating, Velvetleaf: Postemergence
# Procedure, shortened: as §1
# surinam grass = assay: Test B pre/postemergence surinam grass; assay type: in vivo, Brachiaria decumbens
# Procedure, shortened: as §1
# wild oat = assay: Test B pre/postemergence wild oat; assay type: in vivo, Avena fatua; conditions: for Plant response rating, Wild oats: Postemergence
# Procedure, shortened: as §1
# purple nutsedge = assay: Test B pre/postemergence purple nutsedge; assay type: in vivo, Cyperus rotundus
# Procedure, shortened: as §1
# soybean = assay: Test B pre/postemergence soybean; assay type: in vivo, Glycine max; conditions: for Plant response rating, Soybean: Postemergence
# Procedure, shortened: as §1
# cocklebur = assay: Test B pre/postemergence cocklebur; assay type: in vivo, Xanthium strumarium
# Procedure, shortened: as §1
# morningglory = assay: Test B pre/postemergence morningglory; assay type: in vivo, Ipomoea hederacea
# Procedure, shortened: as §1
# blackgrass = assay: Test B pre/postemergence blackgrass; assay type: in vivo, Alopecurus myosuroides
# Procedure, shortened: as §1
# sugar beet = assay: Test B pre/postemergence sugar beet; assay type: in vivo, Beta vulgaris; conditions: for Plant response rating, Sugarbeets: Postemergence
# Procedure, shortened: as §1
# corn = assay: Test B pre/postemergence corn; assay type: in vivo, Zea mays
# Procedure, shortened: as §1
# pigweed = assay: Test B pre/postemergence pigweed; assay type: in vivo, Amaranthus retroflexus; conditions: for Plant response rating, Redroot pigweed: Postemergence
# Procedure, shortened: as §1
# [1] = Postemergence, Rate 62 g/ha, scale of 0 to 10, 0 is no effect, 10 is complete control
# [2] = Postemergence, Rate 125 g/ha, scale of 0 to 10 where 0 is no effect and 10 is complete control
# [3] = Postemergence, Rate 500 g/ha, scale of 0 to 10 where 0 is no effect and 10 is complete control
# [4] = Preemergence, Rate 62 g/ha, scale 0 to 10 (0 no effect, 10 complete control)
# [5] = Preemergence, Rate 125 g/ha, scale of 0 to 10 where 0 is no effect and 10 is complete control
# [6] = Preemergence, Rate 500 g/ha, scale of 0 to 10 where 0 is no effect and 10 is complete control
# [7] = Rate 250 g/ha, Postemergence, scale of 0 to 10 where 0 is no effect and 10 is complete control
# [8] = Rate 125 g/ha, scale of 0 to 10 where 0 is no effect and 10 is complete control
# [9] = Rate 500 g/ha, scale of 0 to 10 where 0 is no effect and 10 is complete control
# [10] = Rate 250 g/ha, scale of 0 to 10 where 0 is no effect and 10 is complete control
structure (smiles),measurement,setting,value
CCC=CCn1c(=O)on(C(=O)N(c2ccccc2)C(C)C)c1=O [Compound 582],Crabgrass plant response rating,crabgrass; [1],0
same,"Plant response rating, Crabgrass",crabgrass; [2],0
same,"Plant response rating, Crabgrass",crabgrass; [3],3
same,Crabgrass plant response rating,crabgrass; [4],0
same,Crabgrass plant response rating,crabgrass; [5],0
same,Crabgrass plant response rating (0 to 10 scale),"crabgrass; Preemergence, Rate 250 g/ha",0
same,Crabgrass plant response rating,crabgrass; [6],7
same,"Plant response rating, Crabgrass",crabgrass; [7],3
same,"Plant response rating, Wheat",wheat; [8],0
same,"Plant response rating, Wheat",wheat; [9],0
same,Wheat plant response rating,wheat; [4],0
same,Wheat plant response rating,wheat; [5],0
same,Wheat plant response rating (0 to 10 scale),"wheat; Preemergence, Rate 250 g/ha",0
same,Wheat plant response rating,wheat; [6],0
same,"Plant response rating, Wheat",wheat; [10],0
same,Rape plant response rating,rape; [1],0
same,"Plant response rating, Rape",rape; [2],0
same,"Plant response rating, Rape",rape; [3],3
same,Rape plant response rating,rape; [4],0
same,Rape plant response rating,rape; [5],0
same,Rape plant response rating (0 to 10 scale),"rape; Preemergence, Rate 250 g/ha",0
same,Rape plant response rating,rape; [6],3
same,"Plant response rating, Rape",rape; [7],0
same,Giant foxtail plant response rating,giant foxtail; [1],3
same,"Plant response rating, Giant foxtail",giant foxtail; [2],4
same,"Plant response rating, Giant foxtail",giant foxtail; [3],7
same,Giant foxtail plant response rating,giant foxtail; [4],0
same,Giant foxtail plant response rating,giant foxtail; [5],5
same,Giant foxtail plant response rating (0 to 10 scale),"giant foxtail; Preemergence, Rate 250 g/ha",8
same,Giant foxtail plant response rating,giant foxtail; [6],8
same,"Plant response rating, Giant foxtail",giant foxtail; [7],9
same,"Plant response rating, Bedstraw",bedstraw; [8],7
same,Bedstraw plant response rating,bedstraw; [4],0
same,Bedstraw plant response rating,bedstraw; [5],0
same,Bedstraw plant response rating (0 to 10 scale),"bedstraw; Preemergence, Rate 250 g/ha",6
same,Bedstraw plant response rating,bedstraw; [6],6
same,"Plant response rating, Bedstraw",bedstraw; [10],9
same,"Plant response rating, Velvetleaf",velvetleaf; [8],0
same,"Plant response rating, Velvetleaf",velvetleaf; [9],0
same,Velvetleaf plant response rating,velvetleaf; [4],0
same,Velvetleaf plant response rating,velvetleaf; [5],0
same,Velvetleaf plant response rating (0 to 10 scale),"velvetleaf; Preemergence, Rate 250 g/ha",4
same,Velvetleaf plant response rating,velvetleaf; [6],4
same,"Plant response rating, Velvetleaf",velvetleaf; [10],0
same,B. signalgrass plant response rating,surinam grass; [1],0
same,"Plant response rating, B. signalgrass",surinam grass; [2],0
same,"Plant response rating, B. signalgrass",surinam grass; [3],3
same,B. signalgrass plant response rating,surinam grass; [4],0
same,B. signalgrass plant response rating,surinam grass; [5],0
same,"B. signalgrass plant response rating (0 to 10 scale, 0 is no effect, 10 is complete control)","surinam grass; Preemergence, Rate 250 g/ha",2
same,B. signalgrass plant response rating,surinam grass; [6],4
same,"Plant response rating, B. signalgrass",surinam grass; [7],0
same,"Plant response rating, Wild oats",wild oat; [8],0
same,"Plant response rating, Wild oats",wild oat; [9],3
same,Wild oats plant response rating,wild oat; [4],0
same,Wild oats plant response rating,wild oat; [5],0
same,Wild oats plant response rating (0 to 10 scale),"wild oat; Preemergence, Rate 250 g/ha",0
same,Wild oats plant response rating,wild oat; [6],0
same,"Plant response rating, Wild oats",wild oat; [10],0
same,Nutsedge plant response rating,purple nutsedge; [1],0
same,"Plant response rating, Nutsedge",purple nutsedge; [2],0
same,"Plant response rating, Nutsedge",purple nutsedge; [3],0
same,Nutsedge plant response rating,purple nutsedge; [4],0
same,Nutsedge plant response rating,purple nutsedge; [5],0
same,Nutsedge plant response rating (0 to 10 scale),"purple nutsedge; Preemergence, Rate 250 g/ha",0
same,Nutsedge plant response rating,purple nutsedge; [6],0
same,"Plant response rating, Soybean",soybean; [8],3
same,"Plant response rating, Soybean",soybean; [9],3
same,Soybean plant response rating,soybean; [4],0
same,Soybean plant response rating,soybean; [5],0
same,Soybean plant response rating (0 to 10 scale),"soybean; Preemergence, Rate 250 g/ha",0
same,Soybean plant response rating,soybean; [6],0
same,"Plant response rating, Soybean",soybean; [10],3
same,Cocklebur plant response rating,cocklebur; [1],0
same,"Plant response rating, Cocklebur",cocklebur; [2],0
same,"Plant response rating, Cocklebur",cocklebur; [3],4
same,Cocklebur plant response rating,cocklebur; [4],0
same,Cocklebur plant response rating,cocklebur; [5],0
same,Cocklebur plant response rating (0 to 10 scale),"cocklebur; Preemergence, Rate 250 g/ha",0
same,Cocklebur plant response rating,cocklebur; [6],0
same,"Plant response rating, Cocklebur",cocklebur; [7],2
same,Morningglory plant response rating,morningglory; [1],9
same,"Plant response rating, Morningglory",morningglory; [2],10
same,"Plant response rating, Morningglory",morningglory; [3],10
same,Morningglory plant response rating,morningglory; [4],0
same,Morningglory plant response rating,morningglory; [5],0
same,Morningglory plant response rating (0 to 10 scale),"morningglory; Preemergence, Rate 250 g/ha",0
same,Morningglory plant response rating,morningglory; [6],2
same,"Plant response rating, Morningglory",morningglory; [7],10
same,Blackgrass plant response rating,blackgrass; [1],3
same,"Plant response rating, Blackgrass",blackgrass; [3],7
same,Blackgrass plant response rating,blackgrass; [4],0
same,Blackgrass plant response rating,blackgrass; [5],0
same,Blackgrass plant response rating (0 to 10 scale),"blackgrass; Preemergence, Rate 250 g/ha",0
same,Blackgrass plant response rating,blackgrass; [6],0
same,"Plant response rating, Blackgrass",blackgrass; [7],3
same,"Plant response rating, Sugarbeets",sugar beet; [8],0
same,"Plant response rating, Sugarbeets",sugar beet; [9],7
same,Sugarbeets plant response rating,sugar beet; [4],0
same,Sugarbeets plant response rating,sugar beet; [5],0
same,Sugarbeets plant response rating (0 to 10 scale),"sugar beet; Preemergence, Rate 250 g/ha",0
same,Sugarbeets plant response rating,sugar beet; [6],0
same,"Plant response rating, Sugarbeets",sugar beet; [10],3
same,Corn plant response rating,corn; [1],0
same,"Plant response rating, Corn",corn; [2],0
same,"Plant response rating, Corn",corn; [3],0
same,Corn plant response rating,corn; [4],0
same,Corn plant response rating,corn; [5],0
same,Corn plant response rating (0 to 10 scale),"corn; Preemergence, Rate 250 g/ha",0
same,Corn plant response rating,corn; [6],0
same,"Plant response rating, Corn",corn; [7],0
same,"Plant response rating, Redroot pigweed",pigweed; [8],0
same,"Plant response rating, Redroot pigweed",pigweed; [9],7
same,Redroot pigweed plant response rating,pigweed; [4],0
same,Redroot pigweed plant response rating,pigweed; [5],0
same,Redroot pigweed plant response rating (0 to 10 scale),"pigweed; Preemergence, Rate 250 g/ha",4
same,Redroot pigweed plant response rating,pigweed; [6],9
same,"Plant response rating, Redroot pigweed",pigweed; [10],7
